Measured values from patent US9783496B2, “Oxindole compounds, solvent-free synthesis and use thereof” (Council of Scientific & Industrial Research, priority 2013, dated 2017).

Tested on: M. smegmatis MC^2 155 strain
Test: Antitubercular activity: growth inhibition of M. smegmatis in 96 well microtiter plate (absorbance at 600 nm)
Type: cell-based, Mycobacterium smegmatis
Conditions: Mycolicibacterium smegmatis, MC^2155, final concentration of compound 30 μM, 32 hrs, determined against DMSO, triplicate, read-out: Percentage inhibition
Description: The compounds were tested for their Anti Mycobacterial ability on M. smegmatis MC^2 155 strain. The series of compounds were obtained in 10 mM stock concentrations. Further, each compound was diluted with the required 100% (v/v) DMSO to achieve a working concentration of 1.5 mM. The inoculum for the assay was prepared by reviving a glycerol stock in Middlebrook 7H9 broth supplemented with 0.1% Tween 80 and 0.5% Glycerol. At the time of inoculation, 10% ADS was added to the media and the culture was incubated in a shaker incubator at 37° C. and 200 rpm. The O.D. of the inoculum reached to 0.8-1 approximately, a secondary inoculum was inoculated and subsequently incubated. This was incubated overnight till the O.D. of the inoculum reached 0.4 approx., following which the inoculum was diluted 1:1000 times. In a 96 well microtiter plate, a 2 μL aliquot of the 1.5 mM dilution of compound was added to each well in triplicate, to which 98 μL of inoculum dilution was added, making the final concentration of compound 30 μM. To each plate a set of controls was added to better ascertain the activity of the compounds. These included DMSO, which was taken as a growth control, and media control (Blank) and Rifampicin and Isoniazid, which were taken as positive controls of inhibition of Mycobacterium smegmatis. After the completion of the period of 32 hrs, the absorbance of the inoculum in wells was measured at 600 nm using a Multi Mode Reader. Absorbance is considered directly proportional to the increase in growth of bacteria, thus it gives a measure of the growth of bacteria in each well. Percentage inhibition was determined against DMSO.

Structure (SMILES)	inhibition at 30 µM [%]
CN1C(=O)C(OC(=O)c2cc3ccccc3o2)(C(=O)NC(C)(C)C)c2ccccc21 (stereo not shown)	26.4
CN1C(=O)C(OC(=O)c2cc3ccccc3[nH]2)(C(=O)NC(C)(C)C)c2ccccc21 (stereo not shown)	9
CN1C(=O)C(OC(=O)c2ccccn2)(C(=O)NC(C)(C)C)c2ccccc21 (stereo not shown)	5.24
CCOC(=O)CNC(=O)C1(OC(=O)c2ccccc2)C(=O)N(C)c2ccccc21 (stereo not shown)	14.7
CN1C(=O)C(OC(=O)/C=C/c2ccccc2)(C(=O)NC(C)(C)C)c2ccccc21 (stereo not shown)	7.04
COc1ccc(CC(=O)OC2(C(=O)NC(C)(C)C)C(=O)N(C)c3ccccc32)cc1 (stereo not shown)	44.2
CC(C)NC(=O)C1(OC(=O)c2ccccc2)C(=O)N(C)c2ccccc21 (stereo not shown)	-5.24
CN1C(=O)C(OC(=O)c2ccccc2)(C(=O)NC2CCCCC2)c2ccccc21 (stereo not shown)	-8.02
CN1C(=O)C(OC(=O)c2ccccc2)(C(=O)NC(C)(C)C)c2ccccc21 (stereo not shown) [Compound 4a, 3-(tert-Butylcarbamoyl)-1-methyl-2-oxoindolin-3-yl benzoate]	18.6
CN1C(=O)C(OC(=O)c2ccccc2F)(C(=O)NC(C)(C)C)c2ccccc21 (stereo not shown) [Compound 4b, 3-(tert-Butylcarbamoyl)-1-methyl-2-oxoindolin-3-yl 2-fluoro benzoate]	24.6
CN1C(=O)C(OC(=O)c2ccccc2Cl)(C(=O)NC(C)(C)C)c2ccccc21 (stereo not shown) [Compound 4c, 3-(tert-Butylcarbamoyl)-1-methyl-2-oxoindolin-3-yl 2-chloro benzoate]	42.7
CN1C(=O)C(OC(=O)c2ccccc2Br)(C(=O)NC(C)(C)C)c2ccccc21 (stereo not shown) [Compound 4d, 3-(tert-butylcarbamoyl)-1-methyl-2-oxoindolin-3-yl 2-bromo benzoate]	17.3
CN1C(=O)C(OC(=O)c2cccc([N+](=O)[O-])c2)(C(=O)NC(C)(C)C)c2ccccc21 (stereo not shown) [Compound 4e, 3-(tert-Butylcarbamoyl)-1-methyl-2-oxoindolin-3-yl 3-nitro benzoate]	-5.24
CN1C(=O)C(OC(=O)c2ccc([N+](=O)[O-])cc2)(C(=O)NC(C)(C)C)c2ccccc21 (stereo not shown) [Compound 4f, 3-(tert-Butylcarbamoyl)-1-methyl-2-oxoindolin-3-yl 4-nitro benzoate]	21.5
COc1ccc(C(=O)OC2(C(=O)NC(C)(C)C)C(=O)N(C)c3ccccc32)cc1 (stereo not shown) [Compound 4g, 3-(tert-Butylcarbamoyl)-1-methyl-2-oxoindolin-3-yl 4-methoxy benzoate]	43.5
CN1C(=O)C(OC(=O)c2ccco2)(C(=O)NC(C)(C)C)c2ccccc21 (stereo not shown) [Compound 4h, 3-(tert-Butylcarbamoyl)-1-methyl-2-oxoindolin-3-yl furan-2-carboxylate]	24.1
CN1C(=O)C(OC(=O)c2cccs2)(C(=O)NC(C)(C)C)c2ccccc21 (stereo not shown) [Compound 4i, 3-(tert-Butylcarbamoyl)-1-methyl-2-oxoindolin-3-yl thiophene-2-carboxylate]	30.8
CC(=O)OC1(C(=O)NC(C)(C)C)C(=O)N(C)c2ccccc21 (stereo not shown) [Compound 4n, 3-(tert-Butylcarbamoyl)-1-methyl-2-oxoindolin-3-yl acetate]	19.6
CCC(=O)OC1(C(=O)NC(C)(C)C)C(=O)N(C)c2ccccc21 (stereo not shown) [Compound 4o, 3-(tert-Butylcarbamoyl)-1-methyl-2-oxoindolin-3-yl propionate]	-1.64
CC(C)(C)NC(=O)C1(OC(=O)c2ccccc2)C(=O)N(Cc2ccccc2)c2ccccc21 (stereo not shown) [Compound 4q, 1-Benzyl-3-(tert-Butylcarbamoyl)-2-oxoindolin-3-yl benzoate]	42.9
C=CCN1C(=O)C(OC(=O)c2ccccc2)(C(=O)NC(C)(C)C)c2ccccc21 (stereo not shown) [Compound 4r, 1-Allyl-3-(tert-Butylcarbamoyl)-2-oxoindolin-3-yl benzoate]	35.4
CC(C)(C)NC(=O)C1(OC(=O)c2ccccc2)C(=O)Nc2ccccc21 (stereo not shown) [Compound 4s, 3-(tert-Butylcarbamoyl)-2-oxoindolin-3-yl benzoate]	19.1
CN1C(=O)C(OC(=O)c2ccccc2)(C(=O)NC(C)(C)C)c2cc(F)ccc21 (stereo not shown) [Compound 4u, 3-(tert-Butylcarbamoyl)-5-fluoro-1-methyl-2-oxoindolin-3-yl benzoate]	5.24
CN1C(=O)C(OC(=O)c2ccccc2)(C(=O)NC(C)(C)C)c2cc(Cl)ccc21 (stereo not shown) [Compound 4v, 3-(tert-Butylcarbamoyl)-5-chloro-1-methyl-2-oxoindolin-3-yl benzoate]	9.49
CN1C(=O)C(OC(=O)c2ccccc2)(C(=O)NC(C)(C)C)c2cc(Br)ccc21 (stereo not shown) [Compound 4w, 5-Bromo-3-(tert-Butylcarbamoyl)-1-methyl-2-oxoindolin-3-yl benzoate]	23.4
